Test results: paper PMC10233829 (ACS Omega, 2023)
Values after ≈ are worked out from the molar mass of the structure shown.

Experiments:
PC3 cells = assay: MTT assay, cytotoxic activity; format: cell-based, human; details: MTT, 72 h
Outline: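 Cytotoxicity readout: relative MTT level (%), i.e. absorbance of compound-treated PC3 cells divided by that of untreated controls, ×100. Cultures were kept in a humidified 37 °C, 5% CO2 incubator.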

[1] = tested on: IL-6 level in HaCaT cells; assay: Interleukin-6 ELISA; format: cell-based, human; details: IC50 concentration, 72 h
Procedure: (§1) The level of interleukin-6 (IL-6) in PC3 and HaCaT cell lines was measured by commercial human IL-6 ELISA kits Diaclon SAS (Besancon Cedex, France). […] The untreated cells were used as the control. The IL-6 level in a cell culture supernatant was measured using an enzyme-linked immunosorbent assay in accordance with the manufacturer’s instruction. The experiment was repeated three times.

IL-6 level in PC3 cells = assay: Interleukin-6 ELISA; format: cell-based, human; details: PC3, IC50 concentration, 72 h
Procedure: as §1

P. aeruginosa ATCC 15442 [2] = assay: Bacterial growth curve assay (OD600, 18 h); format: cell-based, Pseudomonas aeruginosa; details: P. aeruginosa
S. aureus ATCC 6538 [3] = assay: Bacterial growth curve assay (OD600, 18 h); format: cell-based, Staphylococcus aureus; details: S. aureus ATCC 6538, 0.1 μg/mL
[4] = tested on: E. coli ATCC 25922 biofilm; assay: Biofilm eradication assay (crystal violet); format: cell-based, Escherichia coli; details: 4 MIC
Procedure: (§2) Three bacterial strains E. coli ATCC 25922, P. aeruginosa ATCC 15442, and S. aureus ATCC 6538 were used to assign biofilm eradication properties of compounds 5, 10, 11, and CP as the reference drug. To quantify the biomass of the bacteria biofilm, the crystal violet method was used with some modifications.[52] The bacteria were incubated to the mid-log phase, diluted to 103 cfu/mL in brain–heart infusion medium, and seeded in a 96-well plate. Bacterial biofilms were formed by overnight incubation at 37 °C with rotation at 140 rpm. After biofilm formation, all wells were washed with PBS to remove nonadherent bacteria cells. […] The biofilms with tested substances were incubated for 20 h at 37 °C with shaking at 140 rpm. The bacterial biofilm was stained with 0.1% (v/v) CV for 10 min. Afterward, the biofilm was rinsed with PBS and dried. To solubilize the adsorbed crystal violet, wells with stained biofilms were incubated in 30% acetic acid. To estimate the total biofilm biomass, optical density (OD) of the resulting solution was measured at 595 nm. Biofilm assays were repeated at least three times on different days, with two technical replicates assessed each time. A minimum eradication concentration (MBEC) was determined as the lowest concentration of compound, which could damage ≥50% of the formed biofilm structure.

[5] = tested on: S. aureus ATCC 6538 biofilm; assay: Biofilm eradication assay (crystal violet); format: cell-based, Staphylococcus aureus; details: 4–2 MIC
Procedure: as §2

S. aureus NCTC 4163 = assay: MIC, twofold microdilution, standard strain; format: cell-based; details: Staphylococcus aureus, NCTC4163, 18 h
S. aureus ATCC 25923 = assay: MIC, twofold microdilution, standard strain; format: cell-based; details: Staphylococcus aureus, ATCC25923, 18 h
S. aureus ATCC 6538 [6] = assay: MIC, twofold microdilution, standard strain; format: cell-based, Staphylococcus aureus; details: Staphylococcus aureus, ATCC6538; standard strain, 18 h
S. aureus ATCC 29213 = assay: MIC, twofold microdilution, standard strain; format: cell-based; details: Staphylococcus aureus, ATCC29213, 18 h
[7] = tested on: S. epidermidis ATCC 12228; assay: MIC, twofold microdilution, standard strain; format: cell-based; details: Staphylococcus epidermidis, ATCC12228, 18 h
[8] = tested on: S. epidermidis ATCC 35984; assay: MIC, twofold microdilution, standard strain; format: cell-based; details: Staphylococcus epidermidis, ATCC35984, 18 h
P. aeruginosa ATCC 15442 [9] = assay: MIC, twofold microdilution, standard strain; format: cell-based, Pseudomonas aeruginosa; details: Pseudomonas aeruginosa, ATCC15442; standard strain, 18 h
E. coli ATCC 25922 = assay: MIC, twofold microdilution, standard strain; format: cell-based, Escherichia coli; details: Escherichia coli, ATCC25922; standard strain, 18 h
S. aureus 180 = assay: MIC, twofold microdilution, clinical strain; format: cell-based; details: Staphylococcus aureus, 18 h
S. aureus 5595 = assay: MIC, twofold microdilution, clinical strain; format: cell-based; details: Staphylococcus aureus, 18 h
S. aureus T5595 = assay: MIC, twofold microdilution, clinical strain; format: cell-based, Staphylococcus aureus; details: Staphylococcus aureus, T5595, 18 h
S. aureus T5591 = assay: MIC, twofold microdilution, clinical strain; format: cell-based, Staphylococcus aureus; details: Staphylococcus aureus, T5591, 18 h
S. epidermidis 4341 = assay: MIC, twofold microdilution, clinical strain; format: cell-based; details: Staphylococcus epidermidis, 18 h
S. epidermidis 5253 = assay: MIC, twofold microdilution, clinical strain; format: cell-based, Staphylococcus epidermidis; details: Staphylococcus epidermidis, 5253, 18 h
S. epidermidis KR4243/1 = assay: MIC, twofold microdilution, clinical strain; format: cell-based; details: Staphylococcus epidermidis, 18 h
S. pasteuri KR 4358 = assay: MIC, twofold microdilution, clinical strain; format: cell-based; details: Staphylococcus pasteuri, KR4358, 18 h
P. aeruginosa 37 = assay: MIC, twofold microdilution, clinical strain; format: cell-based; details: Pseudomonas aeruginosa, 18 h
P. aeruginosa 659 = assay: MIC, twofold microdilution, clinical strain; format: cell-based; details: Pseudomonas aeruginosa, 18 h
E. coli 951 = assay: MIC, twofold microdilution, clinical strain; format: cell-based; details: Escherichia coli, 18 h
E. coli 520 = assay: MIC, twofold microdilution, clinical strain; format: cell-based; details: Escherichia coli, 18 h
E. coli 600 = assay: MIC, twofold microdilution, clinical strain; format: cell-based, Escherichia coli; details: Escherichia coli, 600, 18 h
E. cloacae 8 = assay: MIC, twofold microdilution, clinical strain; format: cell-based, Escherichia cloacae; details: Enterobacter cloacae, 8; clinical strain, 18 h
K. pneumoniae 28 = assay: MIC, twofold microdilution, clinical strain; format: cell-based; details: Klebsiella pneumoniae, 18 h
K. pneumoniae 510 = assay: MIC, twofold microdilution, clinical strain; format: cell-based, Klebsiella pneumoniae; details: Klebsiella pneumoniae, 510; clinical strain, 18 h
M. tuberculosis H37Rv = assay: Tuberculostatic activity, Microplate Alamar Blue Assay (MIC); format: cell-based, Mycobacterium tuberculosis; details: Mycobacterium tuberculosis, H37RV; MABA; read-out: MIC M. tuberculosis H37Rv
[10] = tested on: M. tuberculosis Spec. 192; assay: as above; format: cell-based; details: Mycobacterium tuberculosis, MABA, read-out: MIC M. tuberculosis Spec. 192 (sensitive to tuberculostatics)
M. tuberculosis Spec 210 = assay: microbe, parasite or virus in culture; format: cell-based, Mycobacterium tuberculosis; details: M. tuberculosis Spec. 210
S. aureus DNA gyrase = S. aureus DNA gyrase (Staphylococcus aureus, UniProt P0A0K8+P20831); assay: biochemical; details: supercoiling of relaxed pBR322
Procedure: The enzymatic assay was carried using commercial topoisomerases type II as previously described by Alt et al.[55] with some modifications.
Briefly, 1 U of the enzyme (gyrase or topo IV, Inspiralis. Norwich, UK) isolated from S. aureus converts […] of relaxed pBR322 DNA to the supercoiled form (gyrase) or decatenates 200 ng of kinetoplast DNA (topo IV). […] The reactions were terminated by adding an equal volume of STEB buffer (40% sucrose, 100 mM Tris–HCl pH 8, 10 mM EDTA, and 0.5 mg/mL bromophenol blue), followed by extraction with 1 volume of chloroform/isoamyl alcohol (24:1). The samples were vortexed and centrifuged, and 20 μL of the aqueous phase of each sample was loaded onto a 1% agarose gel and left for 30 min prior to electrophoresis to allow diffusion of salt. […] Gels were stained with ethidium bromide and visualized under UV light in a transilluminator (ChemiDoc MP, Bio Rad).

[11] = target: T1, S. aureus topoisomerase IV (Staphylococcus aureus, UniProt P0C1S7+P0C1U9); assay: Topoisomerase IV decatenation assay; format: biochemical; details: decatenation of kinetoplast DNA; read-out: IC50 S. aureus topoisomerase IV (converted)
T1 construct: purchased Inspiralis, Norwich, UK
Procedure: Briefly, 1 U of the enzyme (gyrase or topo IV, Inspiralis. Norwich, UK) isolated from S. aureus converts 0.5 mg of relaxed pBR322 DNA to the supercoiled form (gyrase) or decatenates 200 ng of kinetoplast DNA (topo IV). […] The reactions were terminated by adding an equal volume of STEB buffer (40% sucrose, 100 mM Tris–HCl pH 8, 10 mM EDTA, and 0.5 mg/mL bromophenol blue), followed by extraction with 1 volume of chloroform/isoamyl alcohol (24:1). The samples were vortexed and centrifuged, and 20 μL of the aqueous phase of each sample was loaded onto a 1% agarose gel and left for 30 min prior to electrophoresis to allow diffusion of salt. […] Gels were stained with ethidium bromide and visualized under UV light in a transilluminator (ChemiDoc MP, Bio Rad).

[12] = MTT assay, cytotoxic activity; format: cell-based; details: human, HaCaT cells (immortal keratinocytes); MTT, 72 h, normal cell line; read-out: IC50 HaCaT
Outline: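 Viability was calculated as A/B × 100%, with A the absorbance of treated samples and B that of untreated controls, from MTT reduction. Cells were cultured in a humidified 37 °C/5% CO2 incubator.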

[13] = tested on: Staphylococci (standard strains); assay: MIC, standard Gram-positive strains as a panel; format: cell-based, S. aureus, S. epidermidis
[14] = tested on: P. aeruginosa ATCC 15442 and E. coli ATCC 25922; assay: MIC, standard Gram-negative rods as a panel; format: cell-based; details: P. aeruginosa ATCC 15442, E. coli ATCC 25922; read-out: MIC against standard Gram-negative rods (range over strains)
[15] = tested on: clinical bacterial strains; assay: MIC, clinical isolates as groups of strains; format: cell-based; details: S. aureus 180 and 5595

T1 sequence (P0C1U9 whole entry): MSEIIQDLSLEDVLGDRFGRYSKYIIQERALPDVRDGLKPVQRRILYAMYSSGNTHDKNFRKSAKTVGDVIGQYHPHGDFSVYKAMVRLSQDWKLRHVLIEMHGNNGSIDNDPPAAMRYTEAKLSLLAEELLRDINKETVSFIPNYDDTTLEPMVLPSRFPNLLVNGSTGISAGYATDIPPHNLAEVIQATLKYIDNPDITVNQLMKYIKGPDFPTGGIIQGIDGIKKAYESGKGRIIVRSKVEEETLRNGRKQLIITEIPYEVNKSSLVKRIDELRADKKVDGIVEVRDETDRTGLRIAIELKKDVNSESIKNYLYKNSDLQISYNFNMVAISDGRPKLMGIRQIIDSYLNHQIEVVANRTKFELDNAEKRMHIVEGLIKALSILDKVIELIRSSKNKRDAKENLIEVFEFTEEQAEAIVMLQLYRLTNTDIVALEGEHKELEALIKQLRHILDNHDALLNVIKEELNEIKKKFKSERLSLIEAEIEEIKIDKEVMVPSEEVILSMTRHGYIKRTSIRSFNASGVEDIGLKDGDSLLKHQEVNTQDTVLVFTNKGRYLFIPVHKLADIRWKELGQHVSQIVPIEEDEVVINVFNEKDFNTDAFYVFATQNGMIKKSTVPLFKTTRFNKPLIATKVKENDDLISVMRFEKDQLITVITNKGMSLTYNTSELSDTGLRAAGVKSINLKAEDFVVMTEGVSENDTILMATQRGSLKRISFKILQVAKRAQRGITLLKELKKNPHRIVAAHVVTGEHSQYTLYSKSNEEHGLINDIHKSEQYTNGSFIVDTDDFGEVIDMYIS
T1 sequence (P0C1S7 whole entry): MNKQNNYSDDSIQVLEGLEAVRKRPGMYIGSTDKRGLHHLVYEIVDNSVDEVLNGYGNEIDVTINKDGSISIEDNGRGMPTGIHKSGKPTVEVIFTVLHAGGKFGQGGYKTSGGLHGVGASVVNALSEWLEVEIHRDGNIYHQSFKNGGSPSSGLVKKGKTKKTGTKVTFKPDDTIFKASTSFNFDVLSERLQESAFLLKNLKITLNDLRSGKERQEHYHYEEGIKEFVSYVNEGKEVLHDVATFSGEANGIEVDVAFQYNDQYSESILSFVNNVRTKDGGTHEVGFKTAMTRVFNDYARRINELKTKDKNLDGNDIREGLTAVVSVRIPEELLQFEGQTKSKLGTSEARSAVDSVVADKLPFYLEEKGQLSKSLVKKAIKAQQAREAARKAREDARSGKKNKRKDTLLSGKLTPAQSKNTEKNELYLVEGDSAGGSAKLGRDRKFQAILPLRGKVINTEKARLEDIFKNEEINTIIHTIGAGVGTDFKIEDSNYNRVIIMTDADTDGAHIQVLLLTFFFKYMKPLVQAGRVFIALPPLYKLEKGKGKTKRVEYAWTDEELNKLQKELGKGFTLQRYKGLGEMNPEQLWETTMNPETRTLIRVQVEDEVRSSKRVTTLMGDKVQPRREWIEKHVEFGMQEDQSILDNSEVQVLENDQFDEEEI
Chain of S. aureus DNA gyrase (P0A0K8 whole entry): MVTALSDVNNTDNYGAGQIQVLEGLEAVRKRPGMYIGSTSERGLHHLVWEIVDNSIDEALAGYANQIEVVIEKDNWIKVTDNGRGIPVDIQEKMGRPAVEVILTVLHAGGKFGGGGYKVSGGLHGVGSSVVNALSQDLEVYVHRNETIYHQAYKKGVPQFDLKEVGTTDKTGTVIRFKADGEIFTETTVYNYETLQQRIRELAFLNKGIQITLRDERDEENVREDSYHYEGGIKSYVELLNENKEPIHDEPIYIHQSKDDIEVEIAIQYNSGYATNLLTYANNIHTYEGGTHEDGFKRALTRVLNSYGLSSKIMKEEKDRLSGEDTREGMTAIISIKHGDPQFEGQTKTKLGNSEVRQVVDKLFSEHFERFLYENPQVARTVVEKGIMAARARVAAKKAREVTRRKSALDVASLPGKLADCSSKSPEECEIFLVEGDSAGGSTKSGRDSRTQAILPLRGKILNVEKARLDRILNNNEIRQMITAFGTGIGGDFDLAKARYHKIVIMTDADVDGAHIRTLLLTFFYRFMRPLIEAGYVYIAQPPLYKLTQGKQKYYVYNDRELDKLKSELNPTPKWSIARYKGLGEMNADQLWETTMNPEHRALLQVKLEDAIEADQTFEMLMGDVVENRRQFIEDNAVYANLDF
Chain of S. aureus DNA gyrase (P20831 whole entry): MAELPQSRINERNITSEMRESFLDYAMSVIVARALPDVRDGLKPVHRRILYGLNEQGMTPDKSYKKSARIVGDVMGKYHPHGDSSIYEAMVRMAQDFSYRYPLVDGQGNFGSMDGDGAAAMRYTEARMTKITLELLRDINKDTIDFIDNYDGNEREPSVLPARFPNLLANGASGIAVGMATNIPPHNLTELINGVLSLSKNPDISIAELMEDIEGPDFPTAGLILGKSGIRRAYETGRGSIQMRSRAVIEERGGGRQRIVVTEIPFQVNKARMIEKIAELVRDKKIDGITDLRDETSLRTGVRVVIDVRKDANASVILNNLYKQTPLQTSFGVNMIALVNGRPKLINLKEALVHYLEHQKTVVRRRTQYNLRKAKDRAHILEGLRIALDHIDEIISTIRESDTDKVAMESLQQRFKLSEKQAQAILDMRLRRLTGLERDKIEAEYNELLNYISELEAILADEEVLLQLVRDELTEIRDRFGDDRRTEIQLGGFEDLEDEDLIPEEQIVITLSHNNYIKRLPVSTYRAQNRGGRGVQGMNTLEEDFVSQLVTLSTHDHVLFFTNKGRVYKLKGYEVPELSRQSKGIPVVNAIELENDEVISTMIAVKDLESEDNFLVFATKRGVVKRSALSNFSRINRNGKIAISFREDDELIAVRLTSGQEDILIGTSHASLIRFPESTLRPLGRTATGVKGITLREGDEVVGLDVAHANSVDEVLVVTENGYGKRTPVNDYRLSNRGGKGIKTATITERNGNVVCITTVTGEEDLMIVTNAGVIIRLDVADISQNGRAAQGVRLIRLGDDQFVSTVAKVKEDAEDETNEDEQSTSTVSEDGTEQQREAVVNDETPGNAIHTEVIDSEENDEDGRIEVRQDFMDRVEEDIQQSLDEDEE

SMILES | IC50 (PC3 cells; Homo sapiens, PC-3, 72 h) | MIC (S. aureus NCTC 4163) | MIC (S. aureus ATCC 25923) | MIC (S. aureus ATCC 6538 [6]) | MIC (S. aureus ATCC 29213) | MIC [7] | MIC [8] | MIC (P. aeruginosa ATCC 15442 [9]) | MIC (E. coli ATCC 25922) | MIC (S. aureus 180) | MIC (S. aureus 5595) | MIC (S. aureus T5595) | MIC (S. aureus T5591) | MIC (S. epidermidis 4341) | MIC (S. epidermidis 5253) | MIC (S. epidermidis KR4243/1) | MIC (S. pasteuri KR 4358) | MIC (P. aeruginosa 37) | MIC (P. aeruginosa 659) | MIC (E. coli 951) | other results
O=C(O)c1cn(C2CC2)c2cc(N3CCNCC3)c(F)cc2c1=O [CP, ciprofloxacin, reference compound] | > 100 µM | – | – | – | – | – | – | – | – | – | – | – | – | – | – | – | – | – | – | – | IC50 (PC3 cells): 100 ± 3.6 µM; effect on IL-6 in human keratinocytes [1]: stimulated human keratinocytes to produce IL-6; decrease of IL-6 release as compared to the control (IL-6 level in PC3 cells): 2.4 times; lag phase elongated up to (P. aeruginosa ATCC 15442 [2]; 0.05 μg/mL): up to 14 h; elongation of the exponential phase to (P. aeruginosa ATCC 15442 [2]; 0.03–0.006 μg/mL): 9 h; bacterial growth limited up to (S. aureus ATCC 6538 [3]): up to 12 h; eradication of the biofilm formed by E. coli [4]: approx. 20%; elimination of the mature biofilm of S. aureus ATCC 6538 [5]: 19–25%
C=CC(=O)N1CCN(c2cc3c(cc2F)c(=O)c(C(=O)O)cn3C2CC2)CC1 [Compound 1, 7-(4-Acryloyl-piperazin-1-yl)-1-cyclopropyl-6-fluoro-4-oxo-1,4-dihydro-quinoline-3-carboxylic Acid] | 68.7 ± 3.4 µM | 0.05 µg/mL (≈ 0.13 µM) | 0.05 µg/mL (≈ 0.13 µM) | 0.05 µg/mL (≈ 0.13 µM) | 0.1 µg/mL (≈ 0.259 µM) | 0.1 µg/mL (≈ 0.259 µM) | 0.05 µg/mL (≈ 0.13 µM) | 3.2 µg/mL (≈ 8.3 µM) | 0.1 µg/mL (≈ 0.259 µM) | 0.8 µg/mL (≈ 2.08 µM) | 0.8 µg/mL (≈ 2.08 µM) | 0.4 µg/mL (≈ 1.04 µM) | 0.8 µg/mL (≈ 2.08 µM) | > 25.6 µg/mL | > 25.6 µg/mL | 0.4 µg/mL (≈ 1.04 µM) | 0.4 µg/mL (≈ 1.04 µM) | > 25.6 µg/mL | > 25.6 µg/mL | > 25.6 µg/mL | MIC (E. coli 520): 1.6 µg/mL (≈ 4.15 µM); MIC (E. coli 600): > 25.6 µg/mL; MIC (E. cloacae 8): 3.2 µg/mL (≈ 8.3 µM); MIC (K. pneumoniae 28): > 25.6 µg/mL; MIC (K. pneumoniae 510): > 25.6 µg/mL; MIC (M. tuberculosis H37Rv): 4 µg/mL (≈ 10.4 µM); MIC [10]: 4 µg/mL (≈ 10.4 µM); fold more effective than the reference tuberculostatics (M. tuberculosis Spec 210): 8–32 fold; IC50 (S. aureus DNA gyrase): 23.9 µM; IC50 [11]: 25.9 µM; IC50 at 72 h [12]: 100 ± 1.2 µM; times higher potency than CP ([13]; S. aureus NCTC 4163 and ATCC 25923): 5–10 times; MIC ([13]; read-out: MIC toward standard Staphylococci (range over strains)): 0.05 to 0.4 µg/mL (≈ 0.13 to 1.04 µM); fold more active than CP toward standard Staphylococci ([13]; standard Gram-positive strains of Table 1): 1.25–10 fold; MIC [14]: ≤ 1 µg/mL; share of CP inhibitory activity [15]: 62.5%
O=C(O)c1cn(C2CC2)c2cc(N3CCN(CCCCC(=O)N4CCN(c5cc6c(cc5F)c(=O)c(C(=O)O)cn6C5CC5)CC4)CC3)c(F)cc2c1=O [Compound 19, CP–Pentanoyl–CP Dimer] | 71.4 ± 3.2 µM | 0.4 µg/mL (≈ 0.537 µM) | 0.8 µg/mL (≈ 1.07 µM) | 0.4 µg/mL (≈ 0.537 µM) | 0.8 µg/mL (≈ 1.07 µM) | 0.8 µg/mL (≈ 1.07 µM) | 0.8 µg/mL (≈ 1.07 µM) | 3.2 µg/mL (≈ 4.3 µM) | 0.4 µg/mL (≈ 0.537 µM) | 1.6 µg/mL (≈ 2.15 µM) | 0.8 µg/mL (≈ 1.07 µM) | 1.6 µg/mL (≈ 2.15 µM) | 0.8 µg/mL (≈ 1.07 µM) | > 25.6 µg/mL | > 25.6 µg/mL | 1.6 µg/mL (≈ 2.15 µM) | 1.6 µg/mL (≈ 2.15 µM) | > 25.6 µg/mL | 25.6 µg/mL (≈ 34.4 µM) | 25.6 µg/mL (≈ 34.4 µM) | MIC (E. coli 520): 3.2 µg/mL (≈ 4.3 µM); MIC (E. coli 600): 3.2 µg/mL (≈ 4.3 µM); MIC (E. cloacae 8): 3.2 µg/mL (≈ 4.3 µM); MIC (K. pneumoniae 28): > 25.6 µg/mL; MIC (K. pneumoniae 510): > 25.6 µg/mL; MIC (M. tuberculosis H37Rv): 8 µg/mL (≈ 10.7 µM); MIC [10]: 8 µg/mL (≈ 10.7 µM); fold more effective than the reference tuberculostatics (M. tuberculosis Spec 210): 8–32 fold; IC50 at 72 h [12]: 72.9 ± 5.7 µM; MIC [14]: ≤ 1 µg/mL; share of CP inhibitory activity [15]: 62.5%; melting point: 170.3 to 171.9 °C
